Counter-ions that a name gives are not always drawn.
What was measured:
human PPARα = target: T1, human PPARα (Homo sapiens, UniProt Q07869); experiment: GAL4-PPARα luciferase reporter assay in COS-1 cells; format: cell-based; conditions: relative luciferase activity, vehicle (DMSO) control regarded as 1, 24 hours
T1 construct: human PPARα (including amino acid residues 167-468); expressed in transfected cells; host or cells: COS-1
T1 sequence (Q07869 167-468): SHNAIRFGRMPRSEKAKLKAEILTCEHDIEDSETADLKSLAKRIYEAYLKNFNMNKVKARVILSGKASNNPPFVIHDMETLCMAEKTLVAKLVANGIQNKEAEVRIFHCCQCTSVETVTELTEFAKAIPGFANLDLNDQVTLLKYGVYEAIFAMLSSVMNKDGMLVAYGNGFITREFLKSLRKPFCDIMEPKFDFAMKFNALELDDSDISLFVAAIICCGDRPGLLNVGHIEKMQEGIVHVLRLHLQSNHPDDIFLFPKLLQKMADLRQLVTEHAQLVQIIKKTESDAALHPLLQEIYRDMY
Description: (§1) By inserting a gene fragment encoding the ligand binding domain of human PPARα (including amino acid residues 167-468) or a gene fragment encoding the ligand binding domain of human PPARγ (including amino acids residue 204-505) into a multicloning site of expressing vector pM containing DNA binding domain of yeast GAL4 protein (Clonetech), a vector plasmid expressing a fused protein of GAL4 protein DNA binding domain and human PPARα or γ ligand binding domain.
(§2) As a reporter plasmid, pGL3-Basic Vector containing firefly luciferase gene (Promega Corporation) was used wherein Gal4-responsive sequence UAS and rabbit β-globin promoter were inserted.
(§3) For the modification of genetic transformation efficiency, a plasmid containing lacZ gene, pβgal control (Clonetech), was used.
(§4) COS-1 cells were cultured in the phenol red free Dulbecco's Modified Eagles Medium (DMEM) (Gibco) supplemented with 5% activated carbon/dextran stripped fetal bovine serum at 37° C. with 5% carbon dioxide. The COS-1 cells were plated at a concentration of 5×10^4 cells/well into a 24-well plate, and the plate was incubated overnight. The medium was replaced with a fresh medium supplemented without 5% activated carbon/dextran treated fetal bovine serum. Further, the cells were transfected using Lipofectamine plus reagent (Gibco) with plasmid GAL4-PPARα- or γ-expressing plasmid (5 ng), the reporter plasmid (50 ng), pβgal control (350 ng) per well. After incubation for 4 hours, the medium was changed with a fresh medium supplemented with 5% activated carbon/dextran treated fetal bovine serum. Then, the compound of the present invention was added thereto in such an amount that the final concentration thereof is 1 μM or 10 μM. After the cultivation for 24 hours, the cells were lysed with a solution for cell lysis accompanied to the Luciferase Assay System (Promega Corporation). The luciferase activity therein was measured by a luminometer using the reagent for measuring luciferase which was also accompanied to said System. The β-galactosidase activity was measured using a β-galactosidase enzyme assay system (Promega Corporation) to correct the generic transfection efficiency.
(§5) The PPARα- or γ-agonistic activity was expressed as a relative activity where the luciferase activity in the well to which the vehicle (DMSO) was added as control was regarded as 1.

human PPARγ = target: T2, human PPARγ (Homo sapiens, UniProt P37231); experiment: GAL4-PPARγ luciferase reporter assay in COS-1 cells; format: cell-based; conditions: relative luciferase activity, vehicle (DMSO) control regarded as 1, 24 hours
T2 construct: human PPARγ (including amino acids residue 204-505); expressed in transfected cells; host or cells: COS-1
T2 sequence (P37231 204-505): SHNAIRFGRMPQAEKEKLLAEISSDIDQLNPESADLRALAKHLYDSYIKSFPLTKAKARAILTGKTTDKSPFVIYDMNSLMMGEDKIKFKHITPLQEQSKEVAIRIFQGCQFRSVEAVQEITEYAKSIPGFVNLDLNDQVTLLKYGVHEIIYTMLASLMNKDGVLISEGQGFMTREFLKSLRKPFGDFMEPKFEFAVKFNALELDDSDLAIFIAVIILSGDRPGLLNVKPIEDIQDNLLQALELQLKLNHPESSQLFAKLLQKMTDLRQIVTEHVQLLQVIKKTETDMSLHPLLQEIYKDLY
Description: as §1, §2, §3, §4, §5

male db/db mice = experiment: Hypoglycemic activity in db/db mice; format: in vivo; conditions: 30 mg/kg orally once a day for 2 weeks, blood glucose level on the last day
Procedure: The test compounds as disclosed in Examples were dissolved or suspended in a 0.5% carbomethyl cellulose solution, and orally administered to male db/db mice (7 to 8 weeks old) at a final dose of 30 mg/kg once a day for 2 weeks. On the last day, the blood was taken at the tail vein, and immediately thereafter, perchloric acid was added for removing proteins, and the blood glucose level was measured by Glucose CII Test Wako (Wako Pure Industries, Ltd.).
In addition, the hypoglycemic activity was calculated by the following equation.

SMILES | PPARα-agonistic activity (10 μM) (human PPARα) | PPARγ-agonistic activity (10 μM) (human PPARγ) | Hypoglycemic Activity (%) (male db/db mice)
CCC(OCc1cccc(/C=C/Cn2cccc2C(=O)c2ccc(C)cc2)c1)C(=O)O (stereo not shown) [Example 9B, 2-[(3-{(1E)-3-[2-(4-methylbenzoyl)-1H-pyrrol-1-yl]prop-1-en-1-yl}benzyl)oxy]-butyric acid] | 8.6 | 5.3 | –
Cc1ccc(C(=O)c2cccn2C/C=C/c2ccc(CO[C@@H](C)C(=O)O)cc2)cc1 [Example 11, (2S)-2-[(4-{(1E)-3-[2-(4-Methylbenzoyl)-1H-pyrrol-1-yl]prop-1-en-1-yl}benzyl)-oxy]propionic acid 1,3-dihydroxy-2-(hydroxymethyl)propan-2-aminium salt] | – | – | 64.4
Cc1ccc(C(=O)c2cccn2C/C=C/c2cccc(CO[C@H](C)C(=O)O)c2)cc1 [Example 5B, (2R)-2-[(3-{(1E)-3-[2-(4-Methylbenzoyl)-1H-pyrrol-1-yl]prop-1-en-1-yl}benzyl)-oxy]propionic acid] | 11.6 | 5.4 | –
Cc1ccc(C(=O)c2nc3ccccc3n2C/C=C/c2ccc(COC(C)(C)C(=O)O)cc2)cc1 [Example 38] | – | – | 18.2
Cc1ccc(C(=O)c2cccn2C/C=C/c2cccc(COCC(=O)O)c2)cc1 [Example 4, [(3-{(1E)-3-[2-(4-Methylbenzoyl)-1H-pyrrol-1-yl]prop-1-en-1-yl}benzyl)oxy]acetic acid] | 12.6 | 3.4 | –
Cc1ccc(C(=O)c2cccn2C/C=C/c2cccc(COC(C(=O)O)c3ccccc3)c2)cc1 (stereo not shown) [Example 2B, [(3-{(1E)-3-[2-(4-Methylbenzoyl)-1H-pyrrol-1-yl]prop-1-en-1-yl}benzyl)oxy]-(phenyl)acetic acid] | 7.8 | 5.6 | –
COc1ccc(C(=O)c2nccn2C/C=C/c2ccc(CO[C@H](C)C(=O)O)cc2)cc1 [Example 29] | – | – | 43.0
Cc1ccc(C(=O)c2cccn2C/C=C/c2ccc(COC(C)(C)C(=O)O)cc2)cc1 [Example 3B, 2-Methyl-2-[(4-{(1E)-3-[2-(4-methylbenzoyl)-1H-pyrrol-1-yl]prop-1-en-1-yl}-benzyl)oxy]propionic acid] | 12.6 | 7.5 | 17.8
Cc1ccc(C(=O)c2cccn2C/C=C/c2ccc(CO[C@H](C)C(=O)O)cc2)cc1 [Example 6B, (2R)-2-[(4-{(1E)-3-[2-(4-Methylbenzoyl)-1H-pyrrol-1-yl]prop-1-ene-1-yl}benzyl)-oxy]propionic acid] | 10.1 | 5.5 | 63.3
Cc1ccc(C(=O)c2cccn2C/C=C/c2cccc(COC(C)(C)C(=O)O)c2)cc1 [Example 1B, 2-Methyl-2-[(3-{(1E)-3-[2-(4-methylbenzoyl)-1H-pyrrol-1-yl]prop-1-en-1-yl}-benzyl)oxy]propionic acid] | 8.0 | 4.7 | 21.2
Cc1ccc(C(=O)c2cccn2C/C=C/c2ccc(COCc3nnn[nH]3)cc2)cc1 [compound 51] | 17.7 | 8.9 | –
Cc1ccc(C(=O)c2cccn2C/C=C/c2cccc(CO[C@@H](C)C(=O)O)c2)cc1 [Example 7B, (2S)-2-[(3-{(1E)-3-[2-(4-Methylbenzoyl)-1H-pyrrol-1-yl]prop-1-en-1-yl}benzyl)-oxy]propionic acid] | 10.8 | 2.9 | –
Cc1ccc(C(=O)c2nccn2C/C=C/c2ccc(CO[C@H](C)C(=O)O)cc2)cc1 [Example 27] | – | – | 51.0

From patent publication US20080306275A1, “NOVEL HETEROARYL DERIVATIVE” (Danippon Sumitomo Pharma Co., Ltd., priority 2003, published 2008)
